In patent US20090311237A1, “Combination therapy using a soluble hyaluronidase and a bisphosphonate” (priority 2008, published 2009):
Like-named read-outs stand apart in the source and are kept apart here.

Test: Phase 1 Stage 1 clinical pharmacokinetics of SC ZA co-administered with rHuPH20
Assay type: in vivo, human
Details: human, serum, sc, serum; for concentration at 6 h: 6 h post infusion; for concentration at 8 h: 8 h post infusion; for concentration at 12 h: 12 h post infusion; for concentration at 0 h: 0 h post infusion; for concentration at 10 min: 10 min post infusion; for concentration at 0.5 h: 0.5 h post infusion; for concentration at 1 h: 1 h post infusion; for concentration at 2 h: 2 h post infusion; for concentration at 4 h: 4 h post infusion; for concentration at 24 h: 24 h post infusion; for concentration at 48 h: 48 h post infusion
Method: A pharmacokinetic study of zoledronic acid (ZA) co-administered with rHuPH20 in human subjects was conducted. The primary objective of the study was to determine the bioavailability of zoledronic acid dosed via subcutaneous (SC) co-administration with human recombinant hyaluronidase PH20 (rHuPH20). […] The patients were administered the prescribed dosage formulations as follows: Cohorts 1-5 were administered a single subcutaneous infusion in a dosage volume of 100 ml at a rate of 3 mL/min. […] The dosing solution is administered via needle or catheter into the SC space of the left anterior thigh (midway between the anterior iliac crest and the cephalad border of the patella). For cohorts 1-5, the dosing solutions were administered by a controlled rate infusion pump at approximately 3 mL/minute. […] The dosing solutions were administered by syringe push bolus injection. […] Serum concentration of ZA was determined using a qualified LC-MS-MS assay after derivatization with diazomethane (Zhu, L S et al. (2006) Rapid Commun. […] The assay range was from 2.0 to 400 ng/mL with a lower limit of quantitation (LLOQ) at 2.0 ng/mL. […] Non-compartmental analysis was used for derivation of primary and secondary pharmacokinetic (PK) parameters. […] Summary statistics (mean, standard deviation, and median) were calculated using JMP or Microsoft Excel.

[1] = ZA 0.5 mg SC infusion + 24000 Units rHuPH20, n=3, read-out: Median Conc.
[2] = ZA 0.5 mg SC infusion + 24000 Units rHuPH20, individual subjects, read-out: Zoledronic Acid Concentration
[3] = ZA 0.5 mg SC infusion + 24000 Units rHuPH20, n=3, read-out: Mean Conc.
[4] = ZA 1 mg SC infusion + 24000 Units rHuPH20, individual subjects, read-out: Zoledronic Acid Concentration
[5] = ZA 1 mg SC infusion + 24000 Units rHuPH20, n=3, read-out: Mean Conc.
[6] = ZA 1 mg SC infusion + 24000 Units rHuPH20, n=3, read-out: Median Conc.
[7] = ZA 2 mg SC infusion + 24000 Units rHuPH20, individual subjects, read-out: Zoledronic Acid Concentration
[8] = ZA 2 mg SC infusion + 24000 Units rHuPH20, n=3, read-out: Mean Conc.
[9] = ZA 2 mg SC infusion + 24000 Units rHuPH20, n=3, read-out: Median Conc.
[10] = ZA 5 mg SC infusion + 24000 Units rHuPH20, n=3, read-out: Mean Conc.
[11] = ZA 5 mg SC infusion + 24000 Units rHuPH20, n=3, read-out: Median Conc.
[12] = ZA 5 mg SC infusion + 24000 Units rHuPH20, individual subjects, read-out: Zoledronic Acid Concentration

## O=P(O)(O)C(O)(Cn1ccnc1)P(=O)(O)O [ZA, 1-hydroxy-2-(1H-imidazol-1-yl)ethylidene-1,1-bisphosphonic acid]
[1]
  concentration at 6 h: 0.00253 µg/mL
  concentration at 8 h: 0.00134 µg/mL
  concentration at 12 h: 0.00055 µg/mL
[2]
  concentration at 8 h: 0.00119 µg/mL
  concentration at 12 h: 0.00052 µg/mL
[3]
  concentration at 8 h: 0.00132 µg/mL
  concentration at 12 h: 0.00054 µg/mL
[4]
  concentration at 0 h: 0.0284 µg/mL
  concentration at 10 min: 0.0321 µg/mL
  concentration at 0.5 h: 0.0334 µg/mL
  concentration at 1 h: 0.0299 µg/mL
  concentration at 2 h: 0.024 µg/mL
  concentration at 4 h: 0.0133 µg/mL
  concentration at 6 h: 0.00548 µg/mL
  concentration at 8 h: 0.00244 µg/mL
  concentration at 12 h: 0.00102 µg/mL
  concentration at 24 h: 0.00056 µg/mL
[5]
  concentration at 0 h: 0.0205 µg/mL
  concentration at 10 min: 0.0272 µg/mL
  concentration at 0.5 h: 0.0281 µg/mL
  concentration at 1 h: 0.0255 µg/mL
  concentration at 2 h: 0.0196 µg/mL
  concentration at 4 h: 0.0103 µg/mL
  concentration at 6 h: 0.0049 µg/mL
  concentration at 8 h: 0.00269 µg/mL
  concentration at 12 h: 0.00109 µg/mL
  concentration at 24 h: 0.00052 µg/mL
[6]
  concentration at 0 h: 0.0179 µg/mL
  concentration at 10 min: 0.025 µg/mL
  concentration at 0.5 h: 0.028 µg/mL
  concentration at 1 h: 0.0272 µg/mL
  concentration at 2 h: 0.0177 µg/mL
  concentration at 4 h: 0.0102 µg/mL
  concentration at 6 h: 0.00547 µg/mL
  concentration at 8 h: 0.00246 µg/mL
  concentration at 12 h: 0.00102 µg/mL
  concentration at 24 h: 0.00051 µg/mL
[7]
  concentration at 0 h: 0.0333 µg/mL
  concentration at 10 min: 0.0525 µg/mL
  concentration at 0.5 h: 0.0598 µg/mL
  concentration at 1 h: 0.0577 µg/mL
  concentration at 2 h: 0.0425 µg/mL
  concentration at 4 h: 0.0175 µg/mL
  concentration at 6 h: 0.00643 µg/mL
  concentration at 8 h: 0.00315 µg/mL
  concentration at 12 h: 0.0015 µg/mL
  concentration at 24 h: 0.00078 µg/mL
  concentration at 48 h: 0.00062 µg/mL
[8]
  concentration at 0 h: 0.0379 µg/mL
  concentration at 10 min: 0.0483 µg/mL
  concentration at 0.5 h: 0.0519 µg/mL
  concentration at 1 h: 0.0565 µg/mL
  concentration at 2 h: 0.0416 µg/mL
  concentration at 4 h: 0.0203 µg/mL
  concentration at 6 h: 0.00769 µg/mL
  concentration at 8 h: 0.00377 µg/mL
  concentration at 12 h: 0.00174 µg/mL
  concentration at 24 h: 0.00087 µg/mL
  concentration at 48 h: 0.00021 µg/mL
[9]
  concentration at 0 h: 0.0396 µg/mL
  concentration at 10 min: 0.0463 µg/mL
  concentration at 0.5 h: 0.0486 µg/mL
  concentration at 1 h: 0.0577 µg/mL
  concentration at 2 h: 0.0422 µg/mL
  concentration at 4 h: 0.0203 µg/mL
  concentration at 6 h: 0.00771 µg/mL
  concentration at 8 h: 0.00334 µg/mL
  concentration at 12 h: 0.00164 µg/mL
  concentration at 24 h: 0.00085 µg/mL
[10]
  concentration at 0 h: 0.0886 µg/mL
  concentration at 10 min: 0.11 µg/mL
  concentration at 0.5 h: 0.125 µg/mL
  concentration at 1 h: 0.118 µg/mL
  concentration at 2 h: 0.0866 µg/mL
  concentration at 4 h: 0.05 µg/mL
  concentration at 6 h: 0.0235 µg/mL
[11]
  concentration at 0 h: 0.0823 µg/mL
  concentration at 10 min: 0.121 µg/mL
  concentration at 0.5 h: 0.13 µg/mL
  concentration at 1 h: 0.116 µg/mL
  concentration at 2 h: 0.0865 µg/mL
  concentration at 4 h: 0.0456 µg/mL
[12]
  concentration at 10 min: 0.121 µg/mL
  concentration at 0.5 h: 0.13 µg/mL
  concentration at 1 h: 0.124 µg/mL
  concentration at 2 h: 0.0835 µg/mL
  concentration at 4 h: 0.0456 µg/mL
  concentration at 6 h: 0.0203 µg/mL
